Measurements taken from PubChem BioAssay AID1259407 (Chemical Carcinogenesis Research Information System (CCRIS), 2018).
Calls of active or inactive are those of the source. The rule behind the calls is not given here.

Tested on: CCRIS mutagenicity, Ames/micronucleus/aberration tests
Test: CCRIS mutagenicity studies
[1] = Test System: MOUSE LYMPHOMA, Strain/Indicator: L5178Y (TK+/TK-), Metabolic Activation: NONE, Method: SUSPENSION/PLATE
[2] = Test System: AMES SALMONELLA TYPHIMURIUM, Strain/Indicator: TA98, Metabolic Activation: HAMSTER, LIVER, S-9, AROCLOR 1254, Method: STANDARD PLATE
[3] = Test System: AMES SALMONELLA TYPHIMURIUM, Strain/Indicator: TA98, Metabolic Activation: NONE, Method: STANDARD PLATE
[4] = Test System: AMES SALMONELLA TYPHIMURIUM, Strain/Indicator: TA98, Metabolic Activation: RAT, LIVER, S-9, AROCLOR 1254, Method: STANDARD PLATE
[5] = Test System: AMES SALMONELLA TYPHIMURIUM, Strain/Indicator: TA100, Metabolic Activation: HAMSTER, LIVER, S-9, AROCLOR 1254, Method: STANDARD PLATE
[6] = Test System: AMES SALMONELLA TYPHIMURIUM, Strain/Indicator: TA100, Metabolic Activation: NONE, Method: STANDARD PLATE
[7] = Test System: AMES SALMONELLA TYPHIMURIUM, Strain/Indicator: TA100, Metabolic Activation: RAT, LIVER, S-9, AROCLOR 1254, Method: STANDARD PLATE
[8] = Test System: AMES SALMONELLA TYPHIMURIUM, Strain/Indicator: TA1537, Metabolic Activation: NONE, Method: STANDARD PLATE
[9] = Test System: AMES SALMONELLA TYPHIMURIUM, Strain/Indicator: TA1538, Metabolic Activation: HAMSTER, LIVER, S-9, AROCLOR 1254, Method: STANDARD PLATE
[10] = Test System: AMES SALMONELLA TYPHIMURIUM, Strain/Indicator: TA1538, Metabolic Activation: NONE, Method: STANDARD PLATE
[11] = Test System: AMES SALMONELLA TYPHIMURIUM, Strain/Indicator: TA1538, Metabolic Activation: RAT, LIVER, S-9, AROCLOR 1254, Method: STANDARD PLATE
[12] = Test System: MOUSE LYMPHOMA, Strain/Indicator: L5178Y (TK+/TK-), Metabolic Activation: RAT, LIVER, S-9, AROCLOR 1254, Method: SUSPENSION/PLATE

For `O=[As](O)(O)O`, the mutagenic call (End Point: IN VITRO CHROMOSOMAL ABERRATIONS, Test System: CHINESE HAMSTER OVARY (CHO), Metabolic Activation: NONE) was “active; positive (structural changes: gaps, breaks)”, the mutagenic call (End Point: IN VITRO MICRONUCLEUS, Test System: CHINESE HAMSTER V-79, Metabolic Activation: NONE) was “active; positive” and the mutagenic call (End Point: In vitro chromosomal aberrations, Test System: Human peripheral lymphocytes, Metabolic Activation: None) was “active; positive”. For the same molecule, the mutagenic call (End Point: In vitro micronucleus, Test System: Human peripheral lymphocytes, Metabolic Activation: None) was “active; positive”, the mutagenic call (End Point: In vivo micronucleus, Test System: Bone marrow polychromatic erythrocytes, Species: Mouse, Strain/Sex: C57BI/6J/Female, Route: Oral) was “inactive; negative” and the mutagenic call (Test System: AMES SALMONELLA TYPHIMURIUM, Strain/Indicator: TA102, Metabolic Activation: NONE, Method: STANDARD PLATE) was “inactive; negative”. The mutagenic call (Test System: CHINESE HAMSTER V-79, Strain/Indicator: SP5 V-79 (HPRT)/6-THIOGUANINE, Metabolic Activation: NONE, Method: STANDARD PLATE) was “inactive; negative”, the mutagenic call (Test System: CHINESE HAMSTER V-79, Strain/Indicator: SPD8 V-79 (HPRT)/6-THIOGUANINE, Metabolic Activation: NONE, Method: STANDARD PLATE) was “active; positive” and the mutagenic call (Test System: E. COLI, Strain/Indicator: WP2 UVRA, Metabolic Activation: NONE, Method: SPOT TEST) was “inactive; negative”. The mutagenic call [1] was “active; positive”.
In the case of `[Cl][Sn]([Cl])([Cl])[Cl]`, the mutagenic call (Test System: AMES SALMONELLA TYPHIMURIUM, Strain/Indicator: TA98, Metabolic Activation: NONE, Method: SUSPENSION/PLATE) is reported as “inactive; negative” and the mutagenic call (Test System: AMES SALMONELLA TYPHIMURIUM, Strain/Indicator: TA100, Metabolic Activation: NONE, Method: SUSPENSION/PLATE) is reported as “inactive; negative”.
For `CC(=O)CC(=O)CCC(=O)O`, the mutagenic call [2] was “inactive; negative”, the mutagenic call [3] was “inactive; negative” and the mutagenic call [4] was “inactive; negative”. The mutagenic call [5] was “inactive; negative”, the mutagenic call [6] was “inactive; negative” and the mutagenic call [7] was “inactive; negative”. The mutagenic call (Test System: AMES SALMONELLA TYPHIMURIUM, Strain/Indicator: TA1535, Metabolic Activation: HAMSTER, LIVER, S-9, AROCLOR 1254, Method: STANDARD PLATE) was “inactive; negative”, the mutagenic call (Test System: AMES SALMONELLA TYPHIMURIUM, Strain/Indicator: TA1535, Metabolic Activation: NONE, Method: STANDARD PLATE) was “inactive; negative” and the mutagenic call (Test System: AMES SALMONELLA TYPHIMURIUM, Strain/Indicator: TA1535, Metabolic Activation: RAT, LIVER, S-9, AROCLOR 1254, Method: STANDARD PLATE) was “inactive; negative”. The mutagenic call (Test System: AMES SALMONELLA TYPHIMURIUM, Strain/Indicator: TA1537, Metabolic Activation: HAMSTER, LIVER, S-9, AROCLOR 1254, Method: STANDARD PLATE) was “inactive; negative”, the mutagenic call [8] was “inactive; negative” and the mutagenic call (Test System: AMES SALMONELLA TYPHIMURIUM, Strain/Indicator: TA1537, Metabolic Activation: RAT, LIVER, S-9, AROCLOR 1254, Method: STANDARD PLATE) was “inactive; negative”. For the same molecule, the mutagenic call [9] was “inactive; negative”, the mutagenic call [10] was “inactive; negative” and the mutagenic call [11] was “inactive; negative”. For the same molecule, the mutagenic call (Test System: CHINESE HAMSTER V-79, Strain/Indicator: V-79 (HGPRT)/6-THIOGUANINE, Metabolic Activation: NONE) was “inactive; negative”, the mutagenic call [1] was “inactive; negative. reevaluation of results: negative” and the mutagenic call [12] was “active; positive. reevaluation of results: positive”.
For `NC(=O)c1cc(N2CC2)c([N+](=O)[O-])cc1[N+](=O)[O-]`, the mutagenic call [3] was “inactive; negative”, the mutagenic call [6] was “active; positive” and the mutagenic call (Test System: E. COLI, Strain/Indicator: NFR-343, Metabolic Activation: NONE, Method: AGAR OVERLAY) was “active; positive”. The mutagenic call (Test System: E. COLI, Strain/Indicator: NFR-343, Metabolic Activation: NONE, Method: STANDARD PLATE) was “active; positive”, the mutagenic call (Test System: E. COLI, Strain/Indicator: NFR-343, Metabolic Activation: RAT, LIVER, S-9, AROCLOR 1254, Method: STANDARD PLATE) was “active; positive” and the mutagenic call (Test System: E. COLI, Strain/Indicator: WP2, Metabolic Activation: NONE, Method: STANDARD PLATE) was “active; positive”. For the same molecule, the mutagenic call (Test System: E. COLI, Strain/Indicator: WP2 UVRA (PKM101), Metabolic Activation: NONE, Method: STANDARD PLATE) was “active; positive”, the mutagenic call (Test System: E. COLI, Strain/Indicator: WP2 UVRA, Metabolic Activation: NONE, Method: AGAR OVERLAY) was “active; positive” and the mutagenic call (Test System: E. COLI, Strain/Indicator: WP2 UVRA, Metabolic Activation: NONE, Method: STANDARD PLATE) was “active; positive”. For the same molecule, the mutagenic call (Test System: E. COLI, Strain/Indicator: WP2 UVRA, Metabolic Activation: RAT, LIVER, S-9, AROCLOR 1254, Method: STANDARD PLATE) was “active; positive”.
`CCN(CC[N+](C)(C)C)c1ccc(N=Nc2ccc([N+](=O)[O-])cc2Cl)cc1` was tested, and the mutagenic call [2] was “active; positive”, the mutagenic call (Test System: AMES SALMONELLA TYPHIMURIUM, Strain/Indicator: TA98, Metabolic Activation: HAMSTER, LIVER, S-9, Method: PREINCUBATION (PRIVAL METHOD)) was “active; positive” and the mutagenic call [3] was “active; positive”. For the same molecule, the mutagenic call [4] was “active; positive”, the mutagenic call [5] was “active; positive” and the mutagenic call [6] was “active; positive”. The mutagenic call [7] was “active; positive”, the mutagenic call [8] was “active; positive” and the mutagenic call [9] was “active; positive”. The mutagenic call [10] was “active; positive”, the mutagenic call [11] was “active; positive” and the mutagenic call (Test System: Ames Salmonella typhimurium, Strain/Indicator: TA98, Metabolic Activation: None, Method: Preincubation) was “active; positive”. The mutagenic call (Test System: Ames Salmonella typhimurium, Strain/Indicator: TA100, Metabolic Activation: None, Method: Preincubation) was “inactive; negative”, the mutagenic call (Test System: Ames Salmonella typhimurium, Strain/Indicator: TA102, Metabolic Activation: None, Method: Preincubation) was “inactive; negative” and the mutagenic call (Test System: Ames Salmonella typhimurium, Strain/Indicator: TA1535, Metabolic Activation: None, Method: Preincubation) was “inactive; negative”. For the same molecule, the mutagenic call [1] was “inactive; negative. reevaluation of results: negative” and the mutagenic call [12] was “active; positive. reevaluation of results: positive”.
`O=C(O)C1Cc2c([nH]c3ccccc23)C(CO)N1` (stereo not drawn) was tested, and the mutagenic call (Test System: AMES SALMONELLA TYPHIMURIUM, Strain/Indicator: TA97, Metabolic Activation: NONE, Method: STANDARD PLATE) was “inactive; negative”, the mutagenic call (Test System: AMES SALMONELLA TYPHIMURIUM, Strain/Indicator: TA97, Metabolic Activation: RAT, LIVER, S-9, AROCLOR 1254, Method: STANDARD PLATE) was “inactive; negative” and the mutagenic call [3] was “inactive; negative”. For the same molecule, the mutagenic call [4] was “inactive; negative”, the mutagenic call [6] was “inactive; negative” and the mutagenic call [7] was “inactive; negative”.
